Patent US8008494B2, “Soluble amide and ester pyrazinoylguanidine sodium channel blockers” (Parion Sciences, Inc., priority 2004, dated 2011)
Structures can show the parent of a compound that is named as a salt. Where two headings read alike, the source gives them in different places.

Key:
[1] = Solubility of compounds in sodium chloride solution; format: physicochemical; conditions: saline or isotonic, thermodynamic from solid
Protocol: Compound solubility was measured in water, 0.12 or 0.9% sodium chloride solution at ambient temperature for up to 10 days. Using a UV/Visable Spectrophotometer and applying Beer's Law with the calculated extinction coeffecient of amiloride (18.6 mM, absorbance values at 362 nm taken from D. Mazzo 1986) the free base concentration in solution was calculated at specified time points. All samples were stored for the duration of the experiment in a single/closure system consisting of glass vials with a stopper-top closure. The vials were maintained at ambient temperature, in the dark, and in the upright position. Compound stability was measured using reverse phase high performance liquid chromatography on the final filtered pulled sample (day 10).
Table 2 gives the solubility in saline of selected amide bis methane sulfonic acid salts and compares them to the mono addition methane sulfonic acid salt of PSA 9714.

[2] = target: T1, Epithelial Sodium Channel (ENaC) (Canis lupus familiaris, UniProt A0A8I3MKE6+A0A8I3Q679+Q95165); assay: Sodium channel (ENaC) blocking activity, short circuit current in airway epithelial monolayers in Ussing chambers; format: cell-based; conditions: canine bronchial epithelium; for Fold Amiloride (PSA4022 = 100): relative potency, PSA4022 = 100, using IC50 from PSA4022 in same run
T1 construct: endogenous in cells; host or cells: primary canine bronchial epithelial cells from freshly excised airways, cultured at air-liquid interface and mounted in Ussing chambers
T1 sequence (A0A8I3Q679 1-649): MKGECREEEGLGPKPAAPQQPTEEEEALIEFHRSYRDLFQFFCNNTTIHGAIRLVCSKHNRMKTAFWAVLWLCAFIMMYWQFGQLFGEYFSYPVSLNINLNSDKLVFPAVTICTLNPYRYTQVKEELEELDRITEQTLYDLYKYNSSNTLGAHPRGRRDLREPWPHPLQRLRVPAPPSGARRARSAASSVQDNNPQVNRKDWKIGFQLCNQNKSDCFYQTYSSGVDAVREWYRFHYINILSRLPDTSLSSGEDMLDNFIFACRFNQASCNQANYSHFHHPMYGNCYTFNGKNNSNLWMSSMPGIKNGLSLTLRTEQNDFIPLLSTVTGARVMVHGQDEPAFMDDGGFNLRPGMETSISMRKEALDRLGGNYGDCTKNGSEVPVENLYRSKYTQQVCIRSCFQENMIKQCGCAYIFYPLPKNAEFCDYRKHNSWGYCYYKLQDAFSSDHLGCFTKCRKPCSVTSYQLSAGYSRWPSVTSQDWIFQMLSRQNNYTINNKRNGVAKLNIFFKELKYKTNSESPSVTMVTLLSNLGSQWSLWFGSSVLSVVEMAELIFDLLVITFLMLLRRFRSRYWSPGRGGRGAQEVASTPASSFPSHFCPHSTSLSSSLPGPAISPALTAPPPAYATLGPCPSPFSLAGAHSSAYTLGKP
T1 sequence (Q95165 1-641): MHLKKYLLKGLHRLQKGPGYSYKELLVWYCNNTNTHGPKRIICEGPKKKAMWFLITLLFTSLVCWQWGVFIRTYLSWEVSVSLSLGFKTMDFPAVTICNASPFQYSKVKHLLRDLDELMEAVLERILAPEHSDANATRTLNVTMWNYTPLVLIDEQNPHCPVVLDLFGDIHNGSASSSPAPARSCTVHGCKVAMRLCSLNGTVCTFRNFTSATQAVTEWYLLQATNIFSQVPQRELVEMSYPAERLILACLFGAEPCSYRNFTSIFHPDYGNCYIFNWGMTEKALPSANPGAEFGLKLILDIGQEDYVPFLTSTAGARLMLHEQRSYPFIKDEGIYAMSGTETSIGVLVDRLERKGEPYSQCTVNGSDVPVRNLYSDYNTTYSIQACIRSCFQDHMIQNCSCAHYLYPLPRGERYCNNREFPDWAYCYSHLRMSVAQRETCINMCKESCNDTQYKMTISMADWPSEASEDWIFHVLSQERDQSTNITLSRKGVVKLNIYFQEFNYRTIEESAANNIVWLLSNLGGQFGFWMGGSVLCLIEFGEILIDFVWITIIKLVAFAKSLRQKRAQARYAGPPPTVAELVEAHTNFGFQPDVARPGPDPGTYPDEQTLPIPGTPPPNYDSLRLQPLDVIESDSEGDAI
T1 sequence (A0A8I3MKE6 1-646): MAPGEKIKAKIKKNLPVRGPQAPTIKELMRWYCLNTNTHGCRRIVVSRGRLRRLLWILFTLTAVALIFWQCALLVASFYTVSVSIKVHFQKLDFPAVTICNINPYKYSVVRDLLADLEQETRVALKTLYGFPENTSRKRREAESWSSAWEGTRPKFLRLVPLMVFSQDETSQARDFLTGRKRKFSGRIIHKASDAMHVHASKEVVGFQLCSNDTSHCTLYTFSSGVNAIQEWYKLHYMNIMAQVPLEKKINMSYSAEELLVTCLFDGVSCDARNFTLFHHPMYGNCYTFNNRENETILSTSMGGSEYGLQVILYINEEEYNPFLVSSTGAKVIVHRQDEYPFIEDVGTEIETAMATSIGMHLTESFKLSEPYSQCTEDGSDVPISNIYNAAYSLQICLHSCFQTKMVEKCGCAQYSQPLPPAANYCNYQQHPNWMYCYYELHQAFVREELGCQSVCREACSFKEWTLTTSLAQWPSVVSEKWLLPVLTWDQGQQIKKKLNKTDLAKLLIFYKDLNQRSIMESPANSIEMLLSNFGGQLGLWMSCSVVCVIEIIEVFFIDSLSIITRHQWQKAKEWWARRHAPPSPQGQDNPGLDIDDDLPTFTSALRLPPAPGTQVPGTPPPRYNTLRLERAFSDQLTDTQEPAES
Protocol: One assay used to assess mechanism of action and/or potency of the compounds of the present invention involves the determination of lumenal drug inhibition of airway epithelial sodium currents measured under short circuit current (ISC) using airway epithelial monolayers mounted in Ussing chambers. Cells obtained from freshly excised human, dog or sheep airways are seeded onto porous 0.4 micron Snapwell™ Inserts (CoStar), cultured at air-liquid interface (ALI) conditions in hormonally defined media, and assayed for sodium transport activity (ISC in μA/cm^2) while bathed in Krebs Bicarbonate Ringer (KBR) in Ussing chambers. All test drug additions are to the lumenal bath with half-log dose addition protocols (from 1×10^−11 M to 3×10^−5 M), and the cumulative change in ISC (inhibition) recorded. All drugs are prepared in dimethyl sulfoxide as stock solutions at a concentration of 1×10^−2 M and stored at −20° C. Six preparations are typically run in parallel; one preparation per run incorporates a positive control. All data from the voltage clamps are collected via a computer interface and analyzed off-line.
Dose-effect relationships for all compounds are considered and analyzed by the Prism 3.0 program. EC50 values, maximal effective concentrations are calculated and compared to positive controls.
Utilizing the tests set forth above, Table 3 summaries the ENaC blocking ability of some of the amides of this invention when assayed in canine bronchial epithelium.
Utilizing the tests set forth above, Table 4 summaries the ENaC blocking ability of some of the Esters of this invention when assayed in canine bronchial epithelium.

[3] = 0.12% sodium chloride solution, 0.12% NaCl solution, methanesulfonic acid salts, ambient temperature, read-out: S1 = Solubility in 0.12% NaCl Solution
[4] = 0.9% sodium chloride solution (normal saline), 0.9% NaCl solution (normal saline), methanesulfonic acid salts, ambient temperature, read-out: S2 = Solubility in 0.9% NaCl Solution (normal Saline)
[5] = Table 3, read-out: IC50 (nM), Epithelial Sodium Channel Blocking Activity of Selected Amides
[6] = Table 4, read-out: IC50 (nM), Epithelial Sodium Channel Blocking Activity of Selected Esters

SMILES | melting point | solubility [1, 3] [µg/mL] | solubility [1, 4] [µg/mL] | IC50 [2, 5] [nM] | Fold Amiloride (PSA4022 = 100) ([2]; Table 3) | IC50 [2, 6] [nM] | Fold Amiloride (PSA4022 = 100) ([2]; Table 4) | solubility ([1]; 0.12% sodium chloride solution, 0.12% saline solution, read-out: solubility in 0.12% saline solution) [µg/mL]
CN(C)CCCCNC(=O)COc1ccc(CCCCNC(=N)NC(=O)c2nc(Cl)c(N)nc2N)cc1 [PSA 24305] | 188 to 190 °C | > 5000 | > 5000 | 6 ± 5 | 152 |  |  | 
N=C(NCCCCc1ccc(OCC(=O)N2CCNCC2)cc1)NC(=O)c1nc(Cl)c(N)nc1N [PSA 19913] | 72 to 74 °C | > 5000 |  | 9 ± 1 | 98 |  |  | 
N=C(NCCCCc1ccc(OCC(=O)OCCN2CCCCC2)cc1)NC(=O)c1nc(Cl)c(N)nc1N [PSA 25453, (4-{4-[N′-(3,5-diamino-6-chloropyrazine-2-carbonyl)guanidino]butyl}-phenoxy)acetic acid 2-piperidin-1-yl-ethyl ester] |  |  |  |  |  | 19 ± 16 | 38 | 
CC(C)(C)OC(=O)NCCOC(=O)COc1ccc(CCCCNC(N)=NC(=O)c2nc(Cl)c(N)nc2N)cc1 [PSA 25309, (4-{4-[N′-(3,5-Diamino-6-chloropyrazine-2-carbonyl)guanidino]butyl}phenoxy)acetic acid 2-tert-butoxycarbonylaminoethyl ester] | 80 to 82 °C |  |  |  |  | 4 | 119 | 
N=C(NCCCCc1ccc(OCC(=O)NCCN)cc1)NC(=O)c1nc(Cl)c(N)nc1N [PSA 23778] | 105 to 107 °C (dec.) | > 5000 |  |  | 146 |  |  | 
CN(C)CCCNC(=O)COc1ccc(CCCCNC(=N)NC(=O)c2nc(Cl)c(N)nc2N)cc1 (as salt: methanesulfonate) [PSA 24304, 2-(4-{4-[N′-(3,5-diamino-6-chloropyrazine-2-carbonyl)guanidino]-butyl}phenoxy)-N-(3-dimethylaminopropyl)acetamide dimethanesulfonate] | 187 to 190 °C |  |  |  |  |  |  | 
N=C(NCCCCc1ccc(OCC(=O)OCC2CCNCC2)cc1)NC(=O)c1nc(Cl)c(N)nc1N [PSA 25720, (4-{4-[N′-(3,5-diamino-6-chloropyrazine-2-carbonyl)guanidino]butyl}-phenoxy)acetic acid piperidin-4-yl-methyl ester dihydrochloride] |  |  |  |  |  | 3 | 189 | 
CS(=O)(=O)O.CS(=O)(=O)O.N=C(NCCCCc1ccc(C(=O)N2CCNCC2)cc1)NC(=O)c1nc(Cl)c(N)nc1N [PSA23607, N-(3,5-Diamino-6-chloropyrazine-2-carbonyl)-N′-{4-[4-(piperazine-1-carbonyl)phenyl]butyl}guanidine bis-methanesulfonate] |  |  |  |  |  |  |  | > 5000
CN(C)CCNC(=O)COc1ccc(CCCCNC(=N)NC(=O)c2nc(Cl)c(N)nc2N)cc1 [PSA 23185a] | 97 to 99 °C | > 5000 |  | 14 ± 9 | 59 |  |  | 
N=C(NCCCCc1ccc(OCC(=O)OCCN)cc1)NC(=O)c1nc(Cl)c(N)nc1N [PSA 25454, (4-{4-[N′-(3,5-diamino-6-chloropyrazine-2-carbonyl)guanidino]butyl}-phenoxy)acetic acid 2-aminoethyl ester dihydrochloride] |  |  |  |  |  | 12 ± 2 | 44 | 
N=C(NCCCCc1ccc(OCC(N)=O)cc1)NC(=O)c1nc(Cl)c(N)nc1N [PSA 9714, reference compound] |  | < 100 | < 100 |  | 62 |  |  | 
N=C(NCCCCc1ccc(OCC(=O)NCCN(CCO)CCO)cc1)NC(=O)c1nc(Cl)c(N)nc1N [PSA 23450] | 87 to 89 °C | > 5000 | > 5000 | 18 | 38 |  |  | 
CN(C)CCCNC(=O)COc1ccc(CCCCNC(=N)NC(=O)c2nc(Cl)c(N)nc2N)cc1 [PSA 24304, 2-(4-{4-[N′-(3,5-diamino-6-chloropyrazine-2-carbonyl)guanidino]-butyl}phenoxy)-N-(3-dimethylaminopropyl)acetamide dimethanesulfonate] |  | > 5000 |  | 4 ± 2 | 173 |  |  | 
